Measured values published in publication PMC4489612, “Unravelling the Evolution of the Allatostatin-Type A, KISS and Galanin Peptide-Receptor Gene Families in Bilaterians: Insights from Anopheles Mosquitoes” (PLoS ONE, 2015).
Ends that are not written are not given here.

Key:
galanin receptors (GALR) = details: vertebrates; cited from earlier work
Text: AST-A peptides activate specific G-protein coupled receptors (GPCRs), the insect allatostatin-A receptors (AST-ARs) that are considered orthologues of galanin receptors (GALR) in vertebrates. In vertebrates, GALRs have a close evolutionary relationship with kisspeptin receptors (KISSR) and are activated by galanin (GAL) and spexin (SPX), peptides that are unrelated to insect AST-As. AST-A peptide function is relatively well studied but the receptors have only been isolated in a few insect species and their evolution and function is unresolved. In t ...

GPRALS1 [1] = assay: iCa^2+ release (Fluo-4 NW) in stable CHO cells expressing GPRALS1; format: cell-based, Anopheles coluzzii; details: 1 nM to 1 μM (BLAST-2 0.5 μM to 0.005 μM)
Method: (§1) The amplified insect receptors included the initiation and termination codons but were not cloned in frame with vector tag proteins. The recombinant constructs were used to transfect mammalian CHO cells that had been maintained in complete Dulbecco’s modified Eagle’s medium (DMEM, Sigma, Spain) containing 4.5 g/L glucose, 110 mg/L sodium pyruvate and L-glutamine and supplemented with 10% sterile foetal bovine serum and 0.1% penicillin: streptomycin antibiotic mix (10.000 U: 10 mg/ml, Sigma) and 250μg/ml sterile filtered amphotericin B solution (1:100 dilution, Sigma, Spain). One day prior to transfection, 2–3 x10^5 cells were seeded into 6 well plates (Sarstedt, Portugal) and transfected using Fugene 6 reagent (1: 6 DNA: Fugene, Roche, Germany) according to the manufacturer’s protocol. The efficiency and success of cell transfection was estimated by performing a simultaneous transfection with a plasmid encoding a fluorescent protein. 72 h after incubation, transformed cells were selected by supplementing medium with 800μg/ml of the antibiotic Geneticin (G418 sulphate, GibcoBRL, USA) and cell recovery was monitored daily and the medium changed until no cell death was observed. Establishment of AST-AR CHO stable cell lines were confirmed by PCR using receptor specific primers.
(§2) GPRALS1 and GPRALS2 stable CHO cell lines were stimulated with Ano_AST-A1 and Ano_AST-A2 peptides, the B. germanica BLAST-2 peptide and rat GAL and sea bass KISS peptides and iCa^2+ release and cAMP production were measured.
(§3) For iCa^2+ release (Relative Fluorescent Units, RFU) a Ca^2+ sensitive fluorescent dye Fluo-4 NW (Molecular Probes, Invitrogen) was used. Approximately 50,000 cells were assayed per well and the variation in fluorescence after addition of increasing peptide concentrations (1 nM to 1 μM, diluted in the assay buffer) was measured every 5s over a total of 2 min and fluorescence was excited using a 485/20 nm filter and captured with a 528/20 nm filter in a Biotek Synergy 4 plate reader (Biotek, USA). Background RFU of transfected cells was measured prior to peptide stimulation. The controls consisted of transfected cells exposed to carbachol (100 nM; Sigma, Spain) and non-transfected CHO cells stimulated with 1 μM of each peptide (negative control).
(§4) Quantitative expression data is presented as mean ± SEM of cDNA from 3 independent experiments analysed in duplicate. Significant changes in transcript expression were assessed using a nonparametric Mann-Whitney two-tailed test. Receptor activation is presented as the mean ± SEM of three independent experiments carried out in triplicate and statistical significance was assessed using a Kruskal-Wallis test with Dunn’s Multiple Comparison Test. […]

GPRALS2 [2] = assay: iCa^2+ release (Fluo-4 NW) in stable CHO cells expressing GPRALS2; format: cell-based, Anopheles coluzzii; details: 1 nM to 1 μM (BLAST-2 0.5 μM to 0.005 μM)
Method: as §1, §2, §3, §4

GPRALS1 [3] = assay: cAMP production (competitive immunoassay) in stable CHO cells expressing GPRALS1; format: cell-based, Anopheles coluzzii; details: 1 x PBS/1 mM IBMX, 30 min at 37°C, cryptate labelled anti-cAMP antibody, triplicate on three occasions
Method: (§5) The amplified insect receptors included the initiation and termination codons but were not cloned in frame with vector tag proteins. The recombinant constructs were used to transfect mammalian CHO cells that had been maintained in complete Dulbecco’s modified Eagle’s medium (DMEM, Sigma, Spain) containing 4.5 g/L glucose, 110 mg/L sodium pyruvate and L-glutamine and supplemented with 10% sterile foetal bovine serum and 0.1% penicillin: streptomycin antibiotic mix (10.000 U: 10 mg/ml, Sigma) and 250μg/ml sterile filtered amphotericin B solution (1:100 dilution, Sigma, Spain). […] 72 h after incubation, transformed cells were selected by supplementing medium with 800μg/ml of the antibiotic Geneticin (G418 sulphate, GibcoBRL, USA) and cell recovery was monitored daily and the medium changed until no cell death was observed. […]
as §2
(§6) The amount of cAMP produced was determined using a competitive immunoassay with a cryptate labelled anti-cAMP antibody (Cisbio, France) and following the manufactures protocol. […]
(§7) Quantitative expression data is presented as mean ± SEM of cDNA from 3 independent experiments analysed in duplicate. […]

GPRALS2 [4] = assay: cAMP production (competitive immunoassay) in stable CHO cells expressing GPRALS2; format: cell-based, Anopheles coluzzii; details: 1 x PBS/1 mM IBMX, 30 min at 37°C, cryptate labelled anti-cAMP antibody, triplicate on three occasions
Method: as §5, §2, §6, §7

DAR-1 = details: D. melanogaster DAR-1; cited from earlier work
DAR-2 = details: D. melanogaster DAR-2; cited from earlier work

galanin (GAL): galanin (GAL), peptide activating vertebrate galanin receptors
GALR activation (galanin receptors (GALR)): activated

YNLNSFGLRY-NH2 [KISS 1–10, vertebrate KISS peptide, sea bass KISS 1–10 ([…]-NH2)]
receptor activation, iCa^2+ signalling (GPRALS1 [1]): failed to activate | receptor activation, iCa^2+ signalling (GPRALS2 [2]): failed to activate

DRLYSFGL-NH2 [BLAST-2, German cockroach Blattella germanica BLAST-2 peptide (DRLYSFGL-NH2)]
receptor activation, iCa^2+ signalling (GPRALS1 [1]): activated | receptor activation, iCa^2+ signalling (GPRALS2 [2]): activated | intracellular cAMP (GPRALS1 [3]): None of the insect peptides induced increased intracellular cAMP | intracellular cAMP (GPRALS2 [4]): None of the insect peptides induced increased intracellular cAMP | iCa^2+ mobilization (DAR-1): stimulates iCa^2+ mobilization | iCa^2+ mobilization (DAR-2): stimulates iCa^2+ mobilization

rat 1–29 GAL: 1–29 rat galanin (Sigma-Aldrich, Spain) (GWTLNSAGYLLGPHAIDNHRSFSDKHGLT; ends and bridges not checked; UniProt P10683 33-61, looked up)
receptor activation, iCa^2+ signalling (GPRALS1 [1]): failed to activate | receptor activation, iCa^2+ signalling (GPRALS2 [2]): failed to activate

spexin (SPX): spexin (SPX), peptide activating vertebrate galanin receptors
GALR activation (galanin receptors (GALR)): activated

FNFNPFGLRF-NH2 [KISS 2–10, vertebrate KISS peptide, sea bass KISS 2–10 ([…]-NH2)]
receptor activation, iCa^2+ signalling (GPRALS1 [1]): failed to activate | receptor activation, iCa^2+ signalling (GPRALS2 [2]): failed to activate
